Results on 93 compounds are retold here after PubChem BioAssay AID1508612.

This data set can be described thus: passive permeability, PAMPA, ADME assay (AID 1508612). Conditions: pH 7.4, 30.0 min, 50.0 µM.

For orientation: Papp means the rate of passage across a membrane or cell layer, normalised by area and donor concentration. High values mean fast passage, low ones slow passage. Compound `O=C(CCc1ccccc1)NC(c1cccs1)c1cc(Cl)c2cccnc2c1O` (stereo not drawn) showed a Papp of 20.9 ×10⁻⁶ cm/s.
Next, `Cc1ccc(O)c(-c2cc(-c3ccccc3C)[nH]n2)c1`: 511 ×10⁻⁶ cm/s.
Next, `CN(C)CCOC1=Cc2ccccc2Sc2ccc(Cl)cc21`: 996 ×10⁻⁶ cm/s; `Cc1cc(-c2nnc3n2CCCCC3)c(C)n1-c1cccc(C#N)c1`: 229 ×10⁻⁶ cm/s.
In the case of `Clc1ccc(C2(c3ccc(-c4cn[nH]c4)cc3)CCNCC2)cc1`, the Papp was found to be 40.5 ×10⁻⁶ cm/s.
Then `COc1ccc(NC(=O)c2[nH]c(C)c(C(C)=O)c2C)cc1S(=O)(=O)Nc1ccc(C#N)cc1`, with 35.7 ×10⁻⁶ cm/s; and `O=C1CCCC2=C1C(c1ccncc1Cl)N=C(Nc1nc3ccccc3o1)N2` (stereo not drawn), with 897 ×10⁻⁶ cm/s.
The compound `COC[C@@H]1CN(C(=O)c2nn(C)c3ccccc23)C[C@H]1c1nc(C)no1` came in with a Papp of 165 ×10⁻⁶ cm/s.
Compound `CCOc1cc2ncc(C#N)c(Nc3ccc(OCc4ccccn4)c(Cl)c3)c2cc1NC(=O)C=CCN(C)C` displayed a Papp of under 1 ×10⁻⁶ cm/s.
Take `c1ccc2[nH]c(Nc3nc(-c4ccncc4)nc4ccccc34)nc2c1`: the Papp was over 1000 ×10⁻⁶ cm/s.
Then `O=C(c1ccc2c(c1)OCO2)N1CCC(Cc2nc(-c3cnccn3)no2)CC1`, with 71.9 ×10⁻⁶ cm/s; and `CNc1nc2c(s1)C(c1ccc(Cl)cc1)CC(=O)N2` (stereo not drawn), with 308 ×10⁻⁶ cm/s.
In turn, `Cc1ccccc1OCC(O)CO` (stereo not drawn) showed a Papp of 44.4 ×10⁻⁶ cm/s.
Next, `Cn1cc(Nc2cnccc2C(=O)O)c2cccnc21`: 3.2 ×10⁻⁶ cm/s.
Compound `CSc1ccccc1N1CCN(CCCCCC(=O)NC2CCCc3ccccc32)CC1` (stereo not drawn) gave a Papp of over 1000 ×10⁻⁶ cm/s.
Next, `NC(=O)C1CCN(c2nc(-c3ccc(OCc4ccccc4)cc3)cs2)CC1`: under 1 ×10⁻⁶ cm/s; `CN(C)c1cccc(-c2cnc(N3CCC(C(N)=O)CC3)nc2)c1`: 273 ×10⁻⁶ cm/s.
`COC(=O)c1cc2occc2n1Cc1nc(-c2ccc(C)cc2)oc1C` displayed a Papp of 40.3 ×10⁻⁶ cm/s.
`O=C1CCC(CNC(=O)c2nc(-c3ccccc3)cc3[nH]ccc23)N1` (stereo not drawn) gave a Papp of 123 ×10⁻⁶ cm/s.
Then `CCOc1ccc(CCN(C)C(=O)c2cc3sccc3n2Cc2ccccc2)cc1OCC`, with over 1000 ×10⁻⁶ cm/s; and `O=C([C@H](Cc1ccc(O[S+](=O)([O-])c2cccc3cnccc23)cc1)N[S+](=O)([O-])c1cccc2cnccc12)N1CCN(Cc2ccccc2)CC1`, with 399 ×10⁻⁶ cm/s; and `COC(=O)c1ccc(NS(=O)(=O)c2c(C)nc3sccn3c2=O)cc1`, with 333 ×10⁻⁶ cm/s.
Then `Cc1noc([C@@H]2CN(C(=O)c3nn(C)c4ccccc34)C[C@H]2CO)n1`, with 84.2 ×10⁻⁶ cm/s; and `Cc1cc(-c2nnc3n2CCCCC3)c(C)n1-c1ccc(C#N)cc1`, with 215 ×10⁻⁶ cm/s.
Next, `CCc1cccc(NC(=O)C(Cc2ccccc2)NS(=O)(=O)c2cccs2)c1` (stereo not drawn): 887 ×10⁻⁶ cm/s; `Cc1noc(C)c1-c1csc(N2CCC(C(N)=O)CC2)n1`: 58.9 ×10⁻⁶ cm/s.
The compound `CC1(COc2ccc3c(c2)ncn3-c2ccc3cccc(N4CCC(N)CC4)c3n2)COC1` showed a Papp of 25.2 ×10⁻⁶ cm/s.
Next, `O=C([C@@H]1CCCN(c2ccc3[nH]c(C4(n5cc(Cl)cn5)CC4)nc3n2)C1)N1CCCC1`: 225 ×10⁻⁶ cm/s.
Then `O=C(Nc1ccc2c(N3CCOCC3)ncnc2c1)c1cccc(Br)c1`, with over 1000 ×10⁻⁶ cm/s; and `CC(C)(C)C(=O)N1CCN(c2nccc(Nc3ccccc3Cl)n2)CC1`, with over 1000 ×10⁻⁶ cm/s; and `Cc1ncc2c(c1CNC(=O)Cn1cnc3ccccc3c1=O)CCNC2`, with 59.6 ×10⁻⁶ cm/s.
The compound `Cc1ccc(NC(=O)N2CCN(c3nc(N)nc4sc(-c5cccnc5)nc34)CC2)cc1` registered a Papp of 577 ×10⁻⁶ cm/s.
Next, `COC(=O)Nc1nc2ccc(C(=O)c3ccccc3)cc2[nH]1`: 282 ×10⁻⁶ cm/s.
Then `CCCSc1nc(N[C@@H]2C[C@H]2c2ccc(F)c(F)c2)c2nnn([C@@H]3C[C@H](OCCO)[C@@H](O)[C@H]3O)c2n1`, with 776 ×10⁻⁶ cm/s.
Then `C[C@]12CC[C@@H]3[C@H](CCC4=CC(=O)CC[C@]43C)[C@]1(O)CC[C@@]2(O)C(=O)CO`, with 30.8 ×10⁻⁶ cm/s.
With `Cc1ccc(C(=O)NC2CCN(c3cnn(CC4CC4)c(=O)c3)CC2)cc1C`, the Papp is 473 ×10⁻⁶ cm/s.
Next, `CN(C)c1cccc(-c2ncnc(N3CCC(C(N)=O)CC3)n2)c1`: 244 ×10⁻⁶ cm/s; `CNC(=O)c1ccc(C)c(-n2c(C)cc(OCc3ccc(F)cc3F)c(Br)c2=O)c1`: 695 ×10⁻⁶ cm/s.
Then `COc1ccc(C2c3c(oc4ccc(Cl)cc4c3=O)C(=O)N2CCCN(C)C)cc1OC` (stereo not drawn), with 235 ×10⁻⁶ cm/s.
Then `Cc1ccccc1C(=O)Nc1sc2c(c1C(=O)NCc1ccco1)CCC(C(C)(C)C)C2` (stereo not drawn), with 167 ×10⁻⁶ cm/s; and `Oc1c(C(Nc2nccs2)c2ccc(C(F)(F)F)cc2)ccc2cccnc12` (stereo not drawn), with 41.6 ×10⁻⁶ cm/s.
As to `COc1ccc2cc1Oc1ccc(cc1)C[C@@H]1c3c(cc(OC)c4c3Oc3cc5c(cc3O4)CCN[C@H]5C2)CCN1C`, the Papp came out at 217 ×10⁻⁶ cm/s.
Next, `COc1ccc2[nH]c(=O)c(-c3noc(-c4ccc(F)cc4)n3)cc2c1`: 63 ×10⁻⁶ cm/s; `Cc1n[nH]c(C)c1CCc1nc2c3ccccc3nc(SCC(=O)Nc3ccc(F)cc3)n2n1`: 122 ×10⁻⁶ cm/s.
Then `C=CC(=O)Nc1cccc(Oc2nc(Nc3ccc(N4CCN(C)CC4)cc3)ncc2Cl)c1`, with over 1000 ×10⁻⁶ cm/s; and `O=C(Cc1ccc(Cl)c(Cl)c1)Nc1ccc(S(=O)(=O)Nc2ccon2)cc1`, with 9.17 ×10⁻⁶ cm/s; and `COC(=O)CNC(=O)c1nc(-c2ccc(Cl)nc2)c2ccccn12`, with over 1000 ×10⁻⁶ cm/s.
Next, `COc1ccc(-c2csc(CCn3nc(C)c4c(C(F)(F)F)cc(=O)[nH]c43)n2)cc1`: 825 ×10⁻⁶ cm/s.
In turn, `CC(=O)N[C@H]1CN(C2CCN(c3ccc(F)cc3C)CC2)C[C@@H]1C1CC1` yielded a Papp of over 1000 ×10⁻⁶ cm/s.
For the compound `COc1ccccc1-n1cnc2cc(C(=O)N3CCCCC3)ccc21`, the Papp was 385 ×10⁻⁶ cm/s.
In turn, `O=C(Cc1ccc2ccccc2c1)Nc1ccc(S(=O)(=O)Nc2nccs2)cc1` showed a Papp of 16.9 ×10⁻⁶ cm/s.
Then `c1ccc2c(Nc3nccs3)nc(-c3ccncc3)nc2c1`, with 150 ×10⁻⁶ cm/s; and `CN1CCN(c2ccc(Nc3nn4c(=O)c5ccccc5nc4s3)cc2)CC1`, with 653 ×10⁻⁶ cm/s.
The compound `O=C(Nc1cn[nH]c1-c1nc2ccc(CN3CCOCC3)cc2[nH]1)NC1CC1` returned a Papp of 5.07 ×10⁻⁶ cm/s.
On to `CCOc1ccc(NC(=O)c2cccc(-n3cccc3)c2)cc1S(=O)(=O)N1CCOCC1`, for which the Papp was 80.4 ×10⁻⁶ cm/s.
As to `COc1ccc(C(=O)NC2CCN(c3cnn(CC4CC4)c(=O)c3)CC2)c(OC)n1`, the Papp was determined as 550 ×10⁻⁶ cm/s.
Then `Cc1ccccc1C(=O)Nc1nc2c(s1)CC(C(C)(C)C)CC2` (stereo not drawn), with 257 ×10⁻⁶ cm/s.
Take `COc1ccc(-c2nc3ccccc3c(=O)n2Cc2ccco2)cc1COc1ccc(NC(C)=O)cc1`: the Papp came to 8.72 ×10⁻⁶ cm/s.
With `C[S+](=O)([O-])c1ccc(-c2nc(C(=O)N3CCOCC3)n3ccncc23)cc1`, the Papp amounted to 8.31 ×10⁻⁶ cm/s.
Next, `Cc1cnc(-c2ccccc2OC(C)C)nc1NCc1ccc(-n2ccnn2)cc1`: over 1000 ×10⁻⁶ cm/s.
Consider `Cn1cc(C2=C(c3cn(CCCSC(=N)N)c4ccccc34)C(=O)NC2=O)c2ccccc21`, for which the Papp amounted to 11.1 ×10⁻⁶ cm/s.
Next, `Oc1ccc(CNc2cccnc2)c2cccnc12`: 371 ×10⁻⁶ cm/s; `O=C(Nc1nc(-c2ccccc2)cs1)c1ccncc1NS(=O)(=O)c1ccc(F)cc1F`: 798 ×10⁻⁶ cm/s; `Cc1ccc(S(=O)(=O)Nc2ccc(C(=O)Nc3nc(-c4ccc(Cl)cc4)cs3)cc2)cc1`: 11 ×10⁻⁶ cm/s.
Next, `CN(C)c1ccc(-c2csc(N3CCC(C(N)=O)CC3)n2)cc1`: 3.06 ×10⁻⁶ cm/s.
Next, `CS(=O)(=O)c1ccc(-c2nnc(/C=C/c3nnc(-c4ccc(C#N)cc4)o3)n2-c2ccccc2Cl)nc1`: over 1000 ×10⁻⁶ cm/s; `CN1C(=O)c2ccccc2[S@](=O)c2ccc(C(=O)NCCc3cccs3)cc21`: 626 ×10⁻⁶ cm/s; `O=C(CCc1ccccc1)Nc1ccc(S(=O)(=O)Nc2nccs2)cc1`: 9.34 ×10⁻⁶ cm/s.
Take `O=C(c1ccc(-c2ncc3cnc(-c4ccccc4)cn23)cc1)N1CCS(=O)(=O)CC1`: the Papp turned out to be 45.6 ×10⁻⁶ cm/s.
On to `CN1CCC(N(Cc2cccs2)c2ccccc2)CC1`, for which the Papp was over 1000 ×10⁻⁶ cm/s.
Next, `COc1cccc(C(=O)Nc2nnc(S(=O)(=O)N3CCOCC3)s2)c1`: 19.2 ×10⁻⁶ cm/s; `NC(=O)C1CCN(c2ncc(-c3ccc4c(c3)OC(F)(F)O4)s2)CC1`: 438 ×10⁻⁶ cm/s; `CCOc1ccccc1C(=O)NC1CCN(c2cc(C)cc(C)c2)C1=O` (stereo not drawn): over 1000 ×10⁻⁶ cm/s.
Next, `Cc1ccc(CCNC(=O)C2CCCN(C(=O)c3cc4sccc4n3C)C2)cc1` (stereo not drawn): over 1000 ×10⁻⁶ cm/s; `CCc1ccc(NC(=O)c2[nH]c(C)c(C(C)=O)c2C)cc1S(=O)(=O)Nc1ccc(C#N)cc1`: 48.1 ×10⁻⁶ cm/s.
`Fc1cc(Nc2nc(-c3ccncc3)nc3ccccc23)ccc1-c1ccncc1` had a Papp of 15.4 ×10⁻⁶ cm/s.
Then `Cc1cc(NS(=O)(=O)c2ccc(NC(=O)Cc3ccc(Cl)c(F)c3)cc2)no1`, with 11.5 ×10⁻⁶ cm/s; and `CCCN(C(=O)c1sc2nc3n(c(=O)c2c1C)CCCC3)c1ccccc1C`, with over 1000 ×10⁻⁶ cm/s; and `Cc1ccccc1S(=O)(=O)Nc1cnccc1C(=O)Nc1nc(-c2ccccc2)cs1`, with over 1000 ×10⁻⁶ cm/s.
Then `COc1ccc(C(=O)NC2CCCc3c2[nH]c2c(Cl)cccc32)cc1OC` (stereo not drawn), with 139 ×10⁻⁶ cm/s.
Then `COc1ccc(-c2ccc3ncc(Nc4ccncc4)n3n2)cc1OC`, with 763 ×10⁻⁶ cm/s; and `CCN1C(=O)c2ccccc2[S@](=O)c2ccc(C(=O)NCc3ccc(C#N)cc3)cc21`, with 872 ×10⁻⁶ cm/s.
The compound `Nc1c(-c2ccncc2)cc[nH]c1=O` registered a Papp of 3.1 ×10⁻⁶ cm/s.
Next, `O=C1Nc2ccccc2/C1=C\c1ccc(O)c(F)c1`: 343 ×10⁻⁶ cm/s.
Next, `Cc1nc([C@](C)(O)CO)sc1-c1cnc(N)c(O[C@H](C)c2cc(F)ccc2-n2nccn2)c1`: 414 ×10⁻⁶ cm/s.
Next, `COc1ccccc1N1CCN(c2ccc3cc(S(=O)(=O)N4CCCCC4)ccc3n2)CC1`: over 1000 ×10⁻⁶ cm/s; `CCc1oc2ccccc2c1C(=O)c1cc(I)c(O)c(I)c1`: 67.7 ×10⁻⁶ cm/s.
`c1ccc(-c2nc(N3CCCCCC3)c3ccccc3n2)nc1` registered a Papp of over 1000 ×10⁻⁶ cm/s.
`O=C(Cc1ccc(O)cc1)N1CC(CNc2ccccc2)C2(C1)CN(c1ccccc1)C2` (stereo not drawn) showed an apparent permeability (Papp) of 197 ×10⁻⁶ cm/s.
In turn, `Nc1ccc(-c2cccc3c(=O)cc(N4CCOCC4)oc23)cc1` yielded a Papp of 65.7 ×10⁻⁶ cm/s.
The compound `Cc1nnc(-c2ccccc2C(C)C)nc1NCc1ccc(-c2cccnc2)cc1` gave a Papp of over 1000 ×10⁻⁶ cm/s.
Then `CN(C)C(=O)c1cc2cnc(Nc3ccc(N4CCNCC4)cn3)nc2n1C1CCCC1`, with 138 ×10⁻⁶ cm/s; and `CCn1cc(CNC(=O)c2cc(-c3ccc(C)cc3)nc3ccc(Br)cc23)c(C)n1`, with 5.55 ×10⁻⁶ cm/s.
